Experimental data: patent US11939402B2, “Antifungal peptides, compounds including the same, and methods of use thereof” (priority 2022, dated 2024)
≈ marks a conversion by molar mass, not a printed value. Where a SMILES comes first, the peptide text is derived from it. The star is where a group is joined. Palmitoyl = CCCCCCCCCCCCCCCC(=O)*; Myristoyl = CCCCCCCCCCCCCC(=O)*; Decanoyl = CCCCCCCCCC(=O)*; Hexanoyl = CCCCCC(=O)*

Tests used:
[1] = tested on: C. neoformans wild type strain H99; assay: microbe, parasite or virus in culture; format: cell-based, Cryptococcus neoformans; conditions: for MIC ug/mL H99: wild-type H99, read at 24 and 48 hours, 37° C.; for MIC ug/mL H99 / MIC: alone; for MIC: against C. neoformans H99 wild type
Description: The assays followed standard CLSI protocol for broth microdilution assays using yeasts.(32) Microbes were passaged in YPD media at 37° C. with mixing for 2 days before harvesting with an inoculation loop to prepare monocultures on Sabouraud Dextrose Agar (SDA) plates. Monocultures on SDA plates were incubated for 2 days at 37° C. before harvesting cells for microdilution assays. RPMI media (100 μL) was charged to each of the 96 wells in a 96 well plate, with an additional 100 μL in the first column. […] The 100 μL was serially diluted by a factor of 2 from the first column to the 11th column. Microbe inoculant was then prepared. An inoculation loop was used to transfer 1-3 colonies of cells to 1 mL phosphate buffer solution (PBS). The PBS and microbe solution was made uniform by vortex mixing. Cell concentration was computed by comparing the absorbance at 530 nm to 1× McFarland standard solution and multiplying the resulting ratio by 10^7 cell/mL conversion factor. Plate inoculant was prepared by diluting the PBS microbe solution to 5000 cell/mL, in RPMI media. A 100 μL aliquot of cells was transferred to each of the wells on the plate other than column 11 for the no growth control. The operating volume was 200 μL, with 500 CFU per well for a final concentration of 2.5*10^3 cells/mL.

[2] = tested on: C. neoformans cdc50Δ mutant strain; format: cell-based, Cryptococcus neoformans; conditions: alone
Description: The assays followed standard CLSI protocol for broth microdilution assays using yeasts.(32) Microbes were passaged in YPD media at 37° C. with mixing for 2 days before harvesting with an inoculation loop to prepare monocultures on Sabouraud Dextrose Agar (SDA) plates. Monocultures on SDA plates were incubated for 2 days at 37° C. before harvesting cells for microdilution assays. RPMI media (100 μL) was charged to each of the 96 wells in a 96 well plate, with an additional 100 μL in the first column. Peptide-DMSO solution (4 μL) at 12.8 mg/mL was charged to each of the wells in the first column. The 100 μL was serially diluted by a factor of 2 from the first column to the 11th column. Microbe inoculant was then prepared. An inoculation loop was used to transfer 1-3 colonies of cells to 1 mL phosphate buffer solution (PBS). The PBS and microbe solution was made uniform by vortex mixing. Cell concentration was computed by comparing the absorbance at 530 nm to 1× McFarland standard solution and multiplying the resulting ratio by 10^7 cell/mL conversion factor. Plate inoculant was prepared by diluting the PBS microbe solution to 5000 cell/mL, in RPMI media. A 100 μL aliquot of cells was transferred to each of the wells on the plate other than column 11 for the no growth control. The operating volume was 200 μL, with 500 CFU per well for a final concentration of 2.5*10^3 cells/mL.

[3] = tested on: C. neoformans cdc50Δ mutant strain; format: cell-based, Cryptococcus neoformans; conditions: for FIC ug/mL ΔCDC50 Peptide: concentration of the peptide in combination with caspofungin; for FIC Index ΔCDC50: peptide with caspofungin, ΔCDC50 (table S1)
Description: The Fractional Inhibitory Concentration Index were calculated as follows: […]

[4] = tested on: C. neoformans cells; assay: AF350-Annexin V / propidium iodine flow cytometry assay (exofacial phosphatidylserine); format: cell-based, Cryptococcus neoformans; conditions: 0.128 mg/mL peptide, 20 minutes at 25° C.; control 0.2±0.1%
Description: Stock microbes were defrosted from the −80° C. freezer and were passed twice for 48 hours each in YPD media. The YPD media was removed by spinning down and the supernatant was decanted. Pelletized cells were resuspended in 1 mL PBS media and washed for 5 minutes with incubation at 25° C. and 250 RPM. Washed cells were spun down again and suspended in 1 mL of PBS solution. cells were diluted 20-fold into 1 mL fungal working solution in an eppendorf. Cell concentration was quantified via comparison to 1× McFarlain's standard on a plate reader using the absorbance value at 530 nm. An aliquot of 1*10^6 cells in 100 μL was created (1*10^7 cell/mL). […] The cells were incubated for 20 minutes at 25° C. and 250 RPM. Baseline and experimental samples were prepared in triplicate. Cells were stained using an operating concentration of 0.001 mg/mL Propidium Iodine (PI) and a 40-fold dilution of AlexaFluor 350 labelled annexin V as per manufactures instructions. After staining the cells, samples were spun down and supernatant decanted. Cells were then fixed in 4% formaldehyde for 5 minutes. Fixed cells were spun down and supernatant decanted and resuspended in 400 μL 1% formaldehyde for flowcytometry. Samples were collected at a slow flow rate on a MACS Quant 10 device (Miltenyi Biotech, Auburn, CA) with 20,000 events collected per injection.
It was sought to determine whether the activities of the peptides were related to the lipid-flipping activity of the P4-ATPase. […] The intensity of the AF350-annexin V signal corresponds to concentration of PS on the exofacial side of the membrane. The propidium iodine signal corresponds to cell viability.
Single cells were first selected and gated based on morphology to ensure homogeneity among the cell population (4A, 4B). Cells with low propidium iodine intensity (PI-A<9 RU) and high AF350-annexin V intensity (Annexin V-A>9 RU) (4C, 4D) were examined. Under these gating parameters there should be, respectively, low non-specific cell death and high exofacial PS.

[5] = tested on: C. neoformans wild type strain H99; conditions: for FIC ug/mL H99 Peptide: concentration of the peptide in combination with caspofungin
Description: Microbes were prepared in the same manner as the MIC assay. […] 100 μL of RPMI media was added to the first 8 wells in the first row. […] The 100 μL of media with drug was serially diluted from the first row to the final row. […] Column 11 was the no growth control, and 12 was the no drug control. The plate was inoculated with microbes in the same manner as the MIC assay. Again, 200 uL was the operating volume, 500 CFU per well, 2.5*10^3 cell/mL. Plates were incubated for 48 hours at 37° C. and read thereafter. The Fractional Inhibitory Concentration Index were calculated as follows:
Where the MICA and MICB are the MIC values of drugs A and B alone and FICA and FICB are the Fractional Inhibitory concentrations of drugs A and B in the presence of each other, respectively.

| Molecule | MIC ug/mL H99 [1] [µg/mL] | MIC ug/mL ΔCDC50 [2] [µg/mL] | FIC ug/mL ΔCDC50 Peptide [3] [µg/mL] | FIC Index ΔCDC50 [3] | FIC ug/mL H99 Peptide ([5]; H99) [µg/mL] | also measured |
| --- | --- | --- | --- | --- | --- | --- |
| CCCCCCCCCC(=O)N[C@@H](CO)C(=O)N[C@@H](CCC(=O)O)C(=O)N[C@@H](CO)C(=O)NCC(=O)N[C@H](C(=O)N[C@@H](C)C(=O)N[C@@H](Cc1c[nH]c2ccccc12)C(=O)NCC(=O)NCC(=O)N[C@H](C(=O)N[C@@H](CCCCN)C(=O)N[C@@H](CCCCN)C(=O)N[C@@H](CC(N)=O)C(=O)N[C@@H](Cc1ccc(O)cc1)C(=O)N[C@@H](C)C(=O)O)[C@@H](C)CC)[C@@H](C)CC [AS15-Da] (Decanoyl-SESGIAWGGIKKNYA-OH) | >128 | >128 |  |  |  |  |
| CCCCCC(=O)N[C@@H](CO)C(=O)N[C@@H](CCC(=O)O)C(=O)N[C@@H](CO)C(=O)NCC(=O)N[C@H](C(=O)N[C@@H](C)C(=O)N[C@@H](Cc1c[nH]c2ccccc12)C(=O)NCC(=O)NCC(=O)N[C@H](C(=O)N[C@@H](CCCCN)C(=O)N[C@@H](CCCCN)C(=O)N[C@@H](CC(N)=O)C(=O)N[C@@H](Cc1ccc(O)cc1)C(=O)N[C@@H](C)C(=O)O)[C@@H](C)CC)[C@@H](C)CC [AS15-Ha] (Hexanoyl-SESGIAWGGIKKNYA-OH) | >128 | >128 |  |  |  |  |
| CCCCCCCCCCCCCC(=O)N[C@@H](CO)C(=O)N[C@@H](CCC(=O)O)C(=O)N[C@@H](CO)C(=O)NCC(=O)N[C@H](C(=O)N[C@@H](C)C(=O)N[C@@H](Cc1c[nH]c2ccccc12)C(=O)NCC(=O)NCC(=O)N[C@H](C(=O)N[C@@H](CCCCN)C(=O)N[C@@H](CCCCN)C(=O)N[C@@H](CC(N)=O)C(=O)N[C@@H](Cc1ccc(O)cc1)C(=O)N[C@@H](C)C(=O)O)[C@@H](C)CC)[C@@H](C)CC [AS15-Ma] (Myristoyl-SESGIAWGGIKKNYA-OH) | >128 | 8 (≈ 4.47 µM) | 0.25 | 0.094 | 0.5 | percentage of cells with low propidium iodine intensity (PI-A<9 RU) and high AF350-annexin V intensity (Annexin V-A>9 RU) [4]: 12.1±2.0%; MIC of caspofungin in the presence of peptide ([5]; 0.5 μg/mL peptide, H99, caspofungin alone 16 μg/mL): 8 µg/mL; FIC Index H99 ([5]; peptide with caspofungin, H99 (table S1)): 0.5-1 |
| CCCCCCCCCCCCCCCC(=O)N[C@@H](CO)C(=O)N[C@@H](CCC(=O)O)C(=O)N[C@@H](CO)C(=O)NCC(=O)N[C@H](C(=O)N[C@@H](C)C(=O)N[C@@H](Cc1c[nH]c2ccccc12)C(=O)NCC(=O)NCC(=O)N[C@H](C(=O)N[C@@H](CCCCN)C(=O)N[C@@H](CCCCN)C(=O)N[C@@H](CC(N)=O)C(=O)N[C@@H](Cc1ccc(O)cc1)C(=O)N[C@@H](C)C(=O)O)[C@@H](C)CC)[C@@H](C)CC [AS15-Pa] (Palmitoyl-SESGIAWGGIKKNYA-OH) | >128 | 128 (≈ 70.4 µM) | 2 | 0.53 | 0.5 |  |
| CCCCCCCCCCCCCCCC(=O)N[C@@H](Cc1c[nH]c2ccccc12)C(=O)NCC(=O)NCC(=O)N[C@H](C(=O)N[C@@H](CCCCN)C(=O)N[C@@H](CCCCN)C(=O)N[C@@H](CC(N)=O)C(=O)N[C@@H](Cc1ccc(O)cc1)C(=O)N[C@@H](C)C(=O)O)[C@@H](C)CC [AW9-Pa] (Palmitoyl-WGGIKKNYA-OH) |  |  | 1 |  | 0.5 |  |
| CCCCCCCCCCCCCC(=O)N[C@@H](Cc1c[nH]c2ccccc12)C(=O)NCC(=O)NCC(=O)N[C@H](C(=O)N[C@@H](C)C(=O)N[C@@H](C)C(=O)N[C@@H](CC(N)=O)C(=O)N[C@@H](Cc1ccc(O)cc1)C(=O)N[C@@H](C)C(=O)O)[C@@H](C)CC [K5A;K6A-Ma] (Myristoyl-WGGIAANYA-OH) |  |  |  |  |  | MIC [1]: >128 µg/mL; percentage of cells with low propidium iodine intensity (PI-A<9 RU) and high AF350-annexin V intensity (Annexin V-A>9 RU) [4]: 1.3±0.9% |
| CCCCCCCCCCCCCC(=O)N[C@@H](CO)C(=O)NCC(=O)N[C@H](C(=O)N[C@@H](C)C(=O)N[C@@H](Cc1c[nH]c2ccccc12)C(=O)NCC(=O)NCC(=O)N[C@H](C(=O)N[C@@H](CCCCN)C(=O)O)[C@@H](C)CC)[C@@H](C)CC [KS9-Ma] (Myristoyl-SGIAWGGIK-OH) | >128 | >128 |  |  |  |  |
| CCCCCCCCCCCCCC(=O)N[C@@H](Cc1c[nH]c2ccccc12)C(=O)NCC(=O)NCC(=O)N[C@H](C(=O)N[C@@H](C)C(=O)N[C@@H](CCCCN)C(=O)N[C@@H](CC(N)=O)C(=O)N[C@@H](Cc1ccc(O)cc1)C(=O)N[C@@H](C)C(=O)O)[C@@H](C)CC [Peptide K5A-Ma] (Myristoyl-WGGIAKNYA-OH) |  |  |  |  |  | MIC [1]: >128 µg/mL; percentage of cells with low propidium iodine intensity (PI-A<9 RU) and high AF350-annexin V intensity (Annexin V-A>9 RU) [4]: 5.6±0.1% |
| CCCCCCCCCCCCCC(=O)N[C@@H](Cc1c[nH]c2ccccc12)C(=O)NCC(=O)NCC(=O)N[C@H](C(=O)N[C@@H](CCCCN)C(=O)N[C@@H](C)C(=O)N[C@@H](CC(N)=O)C(=O)N[C@@H](Cc1ccc(O)cc1)C(=O)N[C@@H](C)C(=O)O)[C@@H](C)CC [Peptide K6A-Ma] (Myristoyl-WGGIKANYA-OH) |  |  |  |  |  | MIC [1]: >128 µg/mL |
| CCCCCCCCCCCCCC(=O)N[C@@H](Cc1ccc(O)cc1)C(=O)N[C@H](C(=O)N[C@@H](CC(=O)O)C(=O)NCC(=O)N[C@@H](Cc1ccccc1)C(=O)N1CCC[C@H]1C(=O)N[C@@H](CC(N)=O)C(=O)N[C@@H](CC(C)C)C(=O)N[C@@H](CCCNC(=N)N)C(=O)N[C@@H](CCC(=O)O)C(=O)N[C@@H](CC(=O)O)C(=O)N[C@@H](CCC(=O)O)C(=O)N[C@@H](Cc1c[nH]cn1)C(=O)N[C@@H](Cc1ccccc1)C(=O)N[C@@H](CCC(N)=O)C(=O)O)C(C)C [QY15-Ma] (Myristoyl-YVDGFPNLREDEHFQ-OH) | >128 | 128 (≈ 61.6 µM) | 0.5 | 0.25 | 0.5 |  |
| Ac-SESGIAWGGIKKNYA-OH [AS15-Aa] | >128 | >128 |  |  |  |  |
| H-SESGIAWGGIKKNYA-OH [AS15] | >128 | 128 | 0.5 | 0.25 | 0.5 | growth in MIC plate wells compared to the no drug control ([1]; visual inspection of the MIC plates, H99): stronger and more confluent growth |
| H-YVDGFPNLREDEHFQ-OH [QY15] | >128 | >128 | 0.5 | 0.5-1 | 0.5 |  |
